As a reminder, the LC50 is the concentration lethal to half of the exposed cells or organisms. A higher LC50 goes with lower toxicity.

Converted amounts (≈) assume the structure as drawn.

A short description of this data set: Toxicity against brine shrimp. Format: organism-based. Particulars: artemia, in vivo.
Take `CC(=O)O[C@H]1CC=C(C)[C@@H]2CC3=C(C)C(=O)O[C@H]3/C=C(/C)CC[C@H](OC(=O)c3ccccc3)[C@@]12C` [MALAYENOLIDE A]: the 50% lethal concentration (LC50) is 100 µg/mL (≈ 209 µM).
Then `CC(=O)O[C@H]1C[C@@H]2O[C@]2(C)[C@@H]2CC3=C(C)C(=O)O[C@H]3/C=C(/C)CC[C@H](OC(=O)c3ccccc3)[C@@]12C` [MALAYENOLIDE B], with less than 2 µg/mL.
Then `CC(=O)O[C@H]1CC=C(C)[C@@H]2CC3=C(C)C(=O)O[C@H]3/C=C(/C)CC[C@H](OC(=O)C=C(C)C)[C@@]12C` [MALAYENOLIDE C], with 20 µg/mL (≈ 43.8 µM); and `CC(=O)O[C@H]1C[C@@H]2O[C@]2(C)[C@@H]2CC3=C(C)C(=O)O[C@H]3/C=C(/C)CC[C@H](OC(=O)C=C(C)C)[C@@]12C` [MALAYENOLIDE D], with 20 µg/mL (≈ 42.3 µM).
